Data published in patent publication US20240325437A1, “METHODS AND COMPOSITIONS FOR USE IN IMPROVING ADAPTIVE IMMUNITY IN THE ELDERLY POPULATION” (Technion Research & Development Foundation Limited, priority 2023, published 2024).
“Also recorded” adds a separate entry of the source. Like-named read-outs stand apart in the source and are kept apart here.

Columns and labels:
[1] = tested on: CD3+ T cells derived from young mice; experiment: Viability of young T cells cultured with heme or spleen extract (Zombie, flow cytometry); type: cell-based, mouse; conditions: for viability of T cells: with and without agent
From the text: (§1) T cell isolation and culture. T cells were harvested from mice spleens and/or lymph nodes (inguinal, axillary, brachial, mandibular, and jejunal), and purified by magnetic separation. Depending on the specific experiment, either bulk CD3^+ T cells or bulk CD3^+CD4^+ T cells or pure naïve (CD3^+CD4^+CD62L^+ CD441^lo CD25^−) T cells were purified using commercially available kits (StemCell, 19765A, 19852A, 19851A), following the manufacturer instructions. The protocol for isolating pure naïve T cells from aged mice was modified, as additional antibodies were added to the initial antibody cocktail to overcome changes in T cell population composition in the aged. Specifically, biotinylated anti-mouse/human CD44 (BioLegend, IM7), and biotinylated anti-mouse CD25 (miltenyi 130-123-860, REA568), were added to the company's premade antibody cocktail for negative selection of lymphocytes. Furthermore, the present inventors performed a step of positive selection of CD62L^+ naïve T cells, using anti-mouse CD62L microbeads (miltenyi, 130-049-701) and magnetic columns (miltenyi, 130-042-201). Primary T cells were cultured at 37° C. and 5% CO2 in RPMI media, supplemented with: 10% FBS, 10 mM Hepes, penicillin/streptomycin, and 0.035% beta-mercaptoethanol. For activation, cells were cultured on plates pre-coated (overnight at 4° C.) with anti-CD3 (2 μg/mL; clone 145-2C11, BioXCell) and anti-CD28 (4 μg/mL, clone 37.51; BioXCell). Resting cells were supplemented with 5 ng/ml recombinant murine IL-7 (PEPROTECH, 217-17). In some experiments, cell cultures were supplemented with hemin chloride (cayman, 16487), ammonium iron (III) citrate (thermos scientific, A11199.30), BSA (Sigma-Aldrich, A9647), and spleen extract, at different concentrations, as indicated in relevant experiments.
Collection of a interstitial fluid-enriched fraction (referred to as spleen extract; SE). Spleens from young or aged mice were harvested, and gently dissociated ontop of a […] cell strainer, in 5 mL PBS or RPMI, 5 min centrifugation at 1350 RPM to separate the cellular pellet from the fluidic fraction, enriched with interstitial components.
(§2) Flow cytometry. […] Intracellular ferrous iron was measured using FerroOrange (Dojindo F374).

aged T cells [2] = experiment: Proliferation of aged T cells activated ex vivo (CellTrace Violet); type: cell-based, mouse; conditions: for aged T cells proliferation: aged T cells activated ex vivo with and without agent
From the text: as §1, §2

aged T cells [3] = experiment: Survival of aged T cells ex vivo; type: cell-based, mouse; conditions: aged T cells (not shown)
Procedure: (§3) Flow cytometry. For cell-surface staining, cultured T cells or freshly isolated T cells were resuspended in a separation buffer (PBS containing 2% FBS and 2 mM EDTA) and incubated for 20 min, on ice, with an antibody mix, supplemented purified anti-mouse CD16/32 (Biolegend, clone 93). For intracellular staining, True-Nuclear™ Transcription Factor Buffer Set (Biolegend, 424401) was used, following the manufacturer's protocol. […] Cell viability was assessed by Zombie violet or Zombie NIR™ Fixable Viability Kits (423114, 423105, biolegend). Cell proliferation was assessed by cell trace violet proliferation kit (C34557, Invitrogen). Lysosomal activity was determined using a lysosomal intracellular activity assay kit (ab234622) according to the manufacturer's instructions. Intracellular ferrous iron was measured using FerroOrange (Dojindo F374). Cells were incubated with […] of FerroOrange in HBSS at 37° C. for 40 minutes, and analyzed by flow cytometry. For Lysotracker staining, cells were incubated with 62.5 nM of lysotracker deep red (Invitrogen L12492) in HBSS at 37° C. for 40 minutes and analyzed by flow cytometry. All data were collected on the Attune NxT Flow Cytometer (Thermo Fisher) and analyzed using FlowJo (BD).

[4] = tested on: CD3+ T cells derived from young mice; experiment: Proliferation of young T cells stimulated ex vivo with anti-CD3/anti-CD28 (cell trace violet); type: cell-based, mouse
From the text: as §1, §2

aged T cells [5] = experiment: Labile iron (FerroOrange) in aged T cells; type: cell-based, mouse
Procedure: as §2
(§4) Functional assays and intracellular ferrous iron staining. Intracellular ferrous iron was measured using FerroOrange (Dojindo, F374). […] All assays were analyzed by flow cytometry.

[6] = tested on: CD3+ T cells derived from the spleen of young and aged mice; experiment: Ferroptosis tolerance: viability of young and aged T cells treated with RSL; type: cell-based, mouse; conditions: increasing doses of RSL, 48 hrs, young vs aged T cells; listed as RSL
From the text: (§5) T cell isolation and culture. T cells were harvested from mice spleens and/or lymph nodes (inguinal, axillary, brachial, mandibular, and jejunal), and purified by magnetic separation. Depending on the specific experiment, either bulk CD3^+ T cells or bulk CD3^+CD4^+ T cells or pure naïve (CD3^+CD4^+CD62L^+ CD441^lo CD25^−) T cells were purified using commercially available kits (StemCell, 19765A, 19852A, 19851A), following the manufacturer instructions. The protocol for isolating pure naïve T cells from aged mice was modified, as additional antibodies were added to the initial antibody cocktail to overcome changes in T cell population composition in the aged. Specifically, biotinylated anti-mouse/human CD44 (BioLegend, IM7), and biotinylated anti-mouse CD25 (miltenyi 130-123-860, REA568), were added to the company's premade antibody cocktail for negative selection of lymphocytes. Furthermore, the present inventors performed a step of positive selection of CD62L^+ naïve T cells, using anti-mouse CD62L microbeads (miltenyi, 130-049-701) and magnetic columns (miltenyi, 130-042-201). […]
as §2
Albumin is the most abundant heme binding protein in the serum. […] The present inventors hypothesized that the unique protein signature measured in aged T cells (FIG. 2H) allows them to survive this hostile microenvironment. […]

[7] = tested on: CD4+ and CD8+ T cells derived from the aged spleen; experiment: Ferroptosis resistance to RSL3 of T cells from aged spleen after adoptive transfer; type: cell-based, mouse; conditions: CD4+ vs CD8+ T cells from aged spleen, TdTomato+ and TdTomato−
From the text: Adoptive T cell transfer. Young T cells were isolated from spleens of young OTII td-tomato transgenic mice (8-12 weeks-old) by magnetic isolation (StemCell), as described above. […] Two weeks following cell transfer, mice were euthanized and spleen and lymph nodes (inguinal, axillary, brachial, mandibular, and jejunal) were extracted for further analysis.
The present inventors hypothesized that ferroptosis resistance was accomplished by maintaining low cellular iron levels. To test this, FerroOrange was employed, a fluorescent probe that interacts with cellular ferrous ion (Fe^+2), to measure changes in labile iron in T cells following activation. In young T cells, labile iron pools increased as early as 9 hr post-activation and continued rising until 72 hrs (FIG. 5A). Iron levels varied across different populations as Ferro-Orange fluorescence intensity was higher in CD8^+ compared to CD4^+ T cells, pre- and post-activation (FIG. 5B). […] A major pathway for increasing cellular iron is the uptake of transferrin-bound iron, mediated by the transferrin receptor (TFR1), also known as CD71. […] In agreement with the observed differences in labile iron, CD8^+ T cells expressed higher levels of CD71 compared to CD4^+ T cells (FIG. 5F). […]

[8] = tested on: T cells response to vaccination; conditions: cited from earlier work
aged T cells [9] = conditions: 24 hr post-activation
Procedure: Functional assays and intracellular ferrous iron staining. Intracellular ferrous iron was measured using FerroOrange (Dojindo, F374). Following extracellular staining, cells were incubated with 1 μM of FerroOrange in HBSS at 37° C. for 30 minutes in a 5% CO2 incubator, and immediately taken for analysis. For Mitochondrial ferrous iron measurement, cells were incubated with 5 μM of Mito-FerroGreen (Dojindo, M489) in HBSS at 37° C. for 30 minutes in a 5% CO2 incubator, washed twice. […] All assays were analyzed by flow cytometry.

[10] = tested on: OVA-specific OTI and OTII T cells in aged recipients; conditions: aged mice, OVA/Alum i.p., FAC i.v. on days 1 and 3, spleen on day 5
Procedure: Control mice were injected with saline. […] Control mice received saline.

aged T cells [11] = tested on: aged T cells
Procedure: as §3

young T cells [12] = experiment: Cellular ROS (DCFDA) in young T cells; type: cell-based, mouse; conditions: T cells exposed to heme, 48 hr
Procedure: as §4

T cells [13] = experiment: Lysosomal intracellular activity assay; type: cell-based, mouse; conditions: T cells activated in the presence of heme
T cells [14] = experiment: Lysosomal mass (lysotracker; flow cytometry and fluorescent microscopy); type: cell-based, mouse; conditions: T cells +/- activation +/- heme
Procedure: as §2
Fluorescent microscopy. Cells were stained simultaneously with lysotracker deep red and FerroOrange in HBSS as described above, and imaged using Leica DMI8 inverted fluorescent microscope.

resting young T cells = experiment: FOXO1 levels in resting young T cells by flow cytometry; type: cell-based, mouse; conditions: resting young T cells incubated ex vivo for 4-48 hr
Procedure: as §2
Lysosomal dysfunction results in accumulation of late endosomes, also referred to as multi vesicular bodies (MVBs), that are identified by expression of CD63. […] FOXO1 regulates expression of TFEB, the master regulator of lysosomal biogenesis^17. Moreover, FOXO1 expression is critical for maintaining T cell quiescence, and its deficiency induces T cell senescence^18. The present inventors hypothesized that the microenvironment in the aged spleen suppressed FOXO1 expression, thus inducing T cell priming (FIG. 7E-G) and dysregulates lysosomal biogenesis and activity. To test this hypothesis, FOXO1 levels were quantified in resting young T cells that were incubated ex vivo with either heme or SE.

T cells [15] = experiment: CD63 expression on T cells by flow cytometry; type: cell-based, mouse; conditions: T cells cultured with heme at different concentrations
Procedure: as §2

[16] = tested on: T cells derived from young mice; experiment: Immunophenotyping of young T cells after ex vivo incubation with heme; type: cell-based, mouse; conditions: young T cells incubated with heme, without TCR-mediated stimulation
From the text: as §5, with “130-042-201). Primary T cells were cultured at 37° C. and 5% CO2 in RPMI media, supplemented with: 10% FBS, 10 mM Hepes, penicillin/streptomycin, and 0.035% beta-mercaptoethanol.” for “130-042-201).”
as §2

young T cells [17] = experiment: Lipid peroxidation (BODIPY 581/591 C11) in young T cells; type: cell-based, mouse; conditions: T cells exposed to heme
[18] = tested on: CD3+ T cells derived from young mice; experiment: Expression of ferritin, HO-1 and CD39 in young T cells by flow cytometry; type: cell-based, mouse; conditions: young T cells exposed to heme
From the text: as §1, §2

Compound: CC(=O)N(O)CCCCCNC(=O)CCC(=O)N(O)CCCCCNC(=O)CCC(=O)N(O)CCCCCN [DFO]
- cell viability ([1]; young T cells cultured with spleen extract plus DFO): partially rescued cell viability

Compound: CC(=O)N[C@@H](CS)C(=O)O [NAC, N-acetyl cysteine]
- viability of T cells ([1]; young T cells activated 48 hr in the presence of SE): improved cell viability
- viability of T cells ([1]; young T cells activated 48 hr in the presence of heme): improved cell viability
- aged T cells proliferation (aged T cells [2]): neither BSA nor NAC improved
- aged T cells survival (aged T cells [3]): neither BSA nor NAC improved
- proliferation ([4]; young T cells activated 48 hr in the presence of SE, with and without agent): improved
- proliferation ([4]; young T cells activated 48 hr in the presence of heme, with and without agent): improved

Compound: C=C[C@H]1C[N@@]2CC[C@H]1C[C@H]2[C@H](O)c1ccnc2ccc(OC)cc12 [Quinine, quinine]
- aged T cells proliferation (aged T cells [2]): rescued their proliferative capacity
- labile iron pools (Ferro-Orange) (aged T cells [5]; aged CD3+ T cells cultured with quinine (15 uM)): increases labile iron pools

Compound: COC(=O)c1ccc([C@@H]2c3[nH]c4ccccc4c3C[C@@H](C(=O)OC)N2C(=O)CCl)cc1 [RSL3]
- cell viability after RSL (ferroptosis tolerance) [6]: aged T cells survived even high levels of the drug; also recorded: aged T cells are significantly more tolerant to ferroptosis than young T cells
- resistance to RSL3-induced ferroptosis [7]: more resistant to RSL3-induced ferroptosis

Compound: N-methyl protoporphyrin IX
- proliferation (aged T cells [2]; aged T cells supplemented with FAC plus FECH inhibitor): prevented the alleviating effect on proliferation

Compound: ferric ammonium citrate [FAC]
- T cells response to vaccination ([8]; hepcidin-treated mice, in vivo administration of FAC): rescued
- mitochondrial iron pools (aged T cells [9]): replenished mitochondrial iron pools
- aged T cells proliferation (aged T cells [2]): significant improvement in proliferative capacity
- proliferation of antigen specific CD4+ T cells (OTII) [10]: improved proliferation
- proliferation of antigen specific CD8+ T cells (OTI) [10]: not affected
- labile iron pools (FerroOrange) (aged T cells [5]; aged T cells activated ex vivo in the presence of FAC): increased labile iron pools
- CD71 expression (aged T cells [11]; FAC-supplemented aged CD8+ T cells (not shown)): the shift in CD71 expression was smaller
- CD71 expression (aged T cells [11]; FAC-supplemented aged T cells): downregulation of CD71

Compound: hemin chloride [heme]
- increase in cellular ROS (young T cells [12]): ~2 fold
- cell viability ([1]; resting young CD3+ T cells with IL-7, heme for 48 hr): significantly reduced cell viability, in a dose-dependent manner
- cell viability ([1]; resting young CD3+ T cells with IL-7, heme for 48 hr, listed as Heme): reduces cell viability
- lysosomal activity (T cells [13]): suppressed
- lysosomal mass (T cells [14]): downregulated lysosomal mass
- FOXO1 levels (resting young T cells): dropped within 4 hr and continued to drop during the 48 hr of incubation
- CD63 expression (T cells [15]): induced CD63 expression, in a dose-dependent manner
- T cell differentiation / naïve T cell pool [16]: sufficient to induce T cell differentiation and deplete the naïve T cell pool
- proliferation ([4]; young T cells activated 48 hr, exposure to heme or SE alone): completely blocked
- lipid peroxidation (young T cells [17]): large induction in lipid peroxidation
- CD39 expression [18]: also induced; also recorded: sufficient to induce CD39
- expression of HO-1 [18]: sufficient to induce expression
- expression of ferritin [18]: sufficient to induce expression
- CD39 expression ([18]; listed as Heme): induces expression
- expression of HO-1 ([18]; listed as Heme): induces expression
- expression of ferritin ([18]; listed as Heme): induces expression

Compound: hepcidin
- T cells response to vaccination ([8]; mice treated with hepcidin): diminished

Compound: holo-transferrin: iron saturated transferrin
- aged T cells proliferation (aged T cells [2]): significant improvement in proliferative capacity
